This is an account of results in publication PMC3721637 (Chemistry & biology, 2009).

No end group written: not given here. carboxyfluorescein = carboxyfluorescein N-terminal label

A short description of data set [1]: Biomarker dosing in rats following IFN-γ treatment, plasma level. The format is in vivo, rat.
Data set [2] has as its target recombinant soluble HLA-DQ2 heterodimer (thrombin-cleaved DQ2-αI-gliadin peptide complex) (human) (UniProt P01909). Put plainly: SEC.

On to “LQLQPF (PQPHLPY)3PQPQPF [[^13C3]-HHH-33-mer]”, for which, in data set [1] (20 mg oral gavage after 2 days i.v. IFN-γ, plasma 60 min, 3Q LC-MS/MS), the “IFN-γ-treated rats with biomarker detected in plasma” value was “one of four”. For the same molecule, the “plasma level in IFN-γ-treated animal relative to control animal” value in data set [1] (rats, oral biomarker, single animals with detectable plasma biomarker) was ~ 10 fold.

carboxyfluorescein-LQLQPFPQPNLPYPQPNLPYPQPNLPYPQPQPF [fluorescein-conjugated NNN-33-mer biomarker]: the fold by which EEE-33-mer binds more than this peptide in data set [2] is 15.6 fold.

For the molecule carboxyfluorescein-LQLQPFPQPELPYPQPELPYPQPELPYPQPQPF [fluorescein-conjugated EEE-33-mer (synthetically deamidated 33-mer from α2-gliadin)], the percent of peptide bound in data set [2] is more than 80%.
